Data on one molecule can be found in patent publication US20220118037A1, “METHOD FOR IMPROVING SARCOPENIA BY USING PHELLINUS LINTEUS” (GRAPE KING BIO LTD, priority 2020, published 2022).

Marks after values point to notes of the source that are not given here.

In the experiment the test system is C2C12 cell line. The experiment is described as follows: Dexamethasone-induced sarcopenia model in differentiated C2C12 myotubes, diameters of the myotubes (H&E stain, Image-Pro Plus). The format is cell-based, mouse. The conditions noted are these: 10 μM dexamethasone alone in 0.1% DMSO, 24 hours, C2C12 myotubes (negative control group). From the text: Mouse skeletal myocytes (i.e., C2C12 cell line) were utilized to establish a sarcopenia model. An artificially synthetic corticosteroid, dexamethasone was utilized to establish the sarcopenia model. Dexamethasone could inhibit the immune system and thus was utilized as an anti-inflammation drug or an allergy drug. […] Thus, dexamethasone was used to induce muscular dystrophy for simulating sarcopenia in this Example. First, a growth medium [Dulbecco's modified minimal essential medium (DMEM) including 10% fetal bovine serum] was utilized to culture the C2C12 cell line under 37° C., 5% CO2, in which the start density of the C2C12 cell line was 1×10^5 to 2×10^5 cells/mL. […] The diameters of the myotubes were measured by using a commercial software (Image-Pro Plus software), and the results of statistical analysis on the diameters of the myotubes were shown in Table 1, in which the statistic method used to analyze the percentage of each items was paired sample t-test, and the symbols “#” and “*” represented significant differences compared to the blank control group and negative control group (p<0.05, n=60), respectively.

`C[C@@H]1C[C@H]2[C@@H]3CCC4=CC(=O)C=C[C@]4(C)[C@@]3(F)[C@@H](O)C[C@]2(C)[C@@]1(O)C(=O)CO` [dexamethasone]: the “Diameters of the myotubes” value is 19.98 ± 6.42# μm.
